Measurements from patent US12115171B2, “Combination therapies and methods of use thereof for treating cancer” (Massachusetts Institute of Technology, priority 2014, dated 2024).
Where two headings read alike, the source gives them in different places.

How the values were obtained:
[1] = cited from earlier work
HCT 116 xenografts = conditions: cited from earlier work
[2] = cited from earlier work; remark: listed apart in the source
[3] = cited from earlier work; remark: listed apart in the source
BxPC-3 = conditions: twice-weekly; cited from earlier work
LNCaP = assay: Cell-Titer Glo viability, LNCaP; format: cell-based, human; conditions: for effect on cell killing by 10 μM Abiraterone: 10, 20 and 40 μM SB203580 (FIG. 13B)
Procedure: (§1) Twenty four hours later, the indicated concentration of BI2536 and R1881 were added, representing time zero. Viability of the prostate cancer cells was assessed using Cell-Titer Glo™ according to the manufacturer's instructions.
(§2) Cell viability was assessed after 5 days using Cell-Titer Glo™ according to the manufacturer's instructions.
(§3) Cell viability was assessed after 4 days using Cell-Titer Glo™ according to the manufacturer's instructions.
Experiments were conducted to investigate the role of the p38MAPK-MK2 pathway in prostate cancer, Western blotting was used to investigate up-regulation of MK3 and MK5 protein levels in LNCaP cells after MK2 knock down using shRNA.

A549 = conditions: twice-weekly; cited from earlier work
PSA expression = PSA expression by qPCR in C4-2 CRPC cells; format: cell-based, human; conditions: 10 μM abiraterone, 5 nM BI2536, alone or combined; 24 hours; FBS (FIG. 8)
Excerpt: RNA was isolated for analysis by qPCR.

C4-2 = assay: Cell-Titer Glo viability, C4-2; format: cell-based, human; conditions: for relative levels of proliferation: 5 nM BI2536, 10 μM abiraterone, alone or in combination, FBS, 5 days post-administration (FIG. 4); for effect on cell killing by 10 μM Abiraterone: 10, 20 and 40 μM SB203580 (FIG. 13B)
Procedure: as §1
Viability was measured for the subsequent five days using Cell-Titer Glo™ according to the manufacturer's instructions.
as §2, §3

[4] = other studies; cited from earlier work
[5] = cited from earlier work; remark: listed apart in the source
[6] = test system: multiple human carcinoma xenografts including HCT 116, NCI-H460, and taxane-resistant CXB1 colon carcinoma; conditions: ~25 mg/kg/day; cited from earlier work
[7] = test system: panel of >50 other kinases; conditions: concentrations up to 10 μM, in vitro; cited from earlier work
[8] = in combination with afatinib; cited from earlier work
22 RV1 = assay: Cell-Titer Glo viability, 22 RV1; format: cell-based; conditions: for effect on cell killing by 10 μM Abiraterone: 10, 20 and 40 μM SB203580 (FIG. 13B)
Procedure: Cell viability of PCa cell lines to increasing doses (10, 20 and 40 μM) of the p38MAPK inhibitor SB203580, as measured using Cell Titer Glo (FIG. 13A).

cell culture = conditions: cited from earlier work
[9] = cited from earlier work; remark: listed apart in the source
xenograft tumor models = conditions: under proper dose scheduling; cited from earlier work
Plk1 = Plk1 (Homo sapiens, UniProt P53350); conditions: cited from earlier work
mouse xenograft models = conditions: 10 mg/kg and 20 mg/kg on days 1 and 28; cited from earlier work
[10] = test system: various human tumor cell lines; conditions: cited from earlier work
[11] = cited from earlier work; remark: listed apart in the source
[12] = 24 to 48 mg/m^2 for 5 consecutive days every 4 weeks; cited from earlier work
[13] = test system: Cdc25C-T96 phosphorylation; conditions: read-out: EC50 Cdc25C-T96 phosphorylation; cited from earlier work
cell mitosis = conditions: read-out: EC50 inhibition of cell mitosis; cited from earlier work
[14] = test system: cell lines, representative of both solid and hematological tumors; conditions: cited from earlier work
[15] = cited from earlier work; remark: listed apart in the source
BT20 cells = conditions: 200 mg/kg; cited from earlier work
[16] = test system: Bel-7402, MCF-7, and MIA-PaCa cells; conditions: 250 mg/kg; cited from earlier work
[17] = biological target: several tyrosine kinases and cyclin-dependent kinase 1 (Cdk1); conditions: cited from earlier work
[18] = test system: HT-29 human colorectal tumors; conditions: cited from earlier work
[19] = test system: several tumor cell lines, including those that express multidrug-resistant protein 1 (MDR1); conditions: cited from earlier work
[20] = increasing concentrations of BI2536, csFBS (FIG. 3A)

Plk1, sequence (P53350 whole entry): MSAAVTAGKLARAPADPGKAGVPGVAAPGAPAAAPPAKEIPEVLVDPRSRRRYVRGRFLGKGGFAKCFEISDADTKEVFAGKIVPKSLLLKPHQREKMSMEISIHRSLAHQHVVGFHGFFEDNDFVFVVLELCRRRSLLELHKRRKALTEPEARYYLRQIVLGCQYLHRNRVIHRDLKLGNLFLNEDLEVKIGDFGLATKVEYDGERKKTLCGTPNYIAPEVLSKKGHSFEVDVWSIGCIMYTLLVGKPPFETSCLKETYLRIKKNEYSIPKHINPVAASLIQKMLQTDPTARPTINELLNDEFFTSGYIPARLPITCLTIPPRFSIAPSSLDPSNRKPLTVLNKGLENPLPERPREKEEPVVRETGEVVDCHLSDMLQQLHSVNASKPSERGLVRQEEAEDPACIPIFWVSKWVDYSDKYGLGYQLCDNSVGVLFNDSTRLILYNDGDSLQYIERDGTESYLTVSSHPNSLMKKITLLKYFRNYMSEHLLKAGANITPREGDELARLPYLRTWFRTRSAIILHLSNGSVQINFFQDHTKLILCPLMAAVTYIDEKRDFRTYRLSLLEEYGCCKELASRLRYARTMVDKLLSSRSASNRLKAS

## CC(=O)O[C@H]1CC[C@@]2(C)C(=CC[C@@H]3[C@@H]2CC[C@]2(C)C(c4cccnc4)=CC[C@@H]32)C1 [Abiraterone acetate, abiraterone acetate]
[1]
  solubility in water: practically insoluble in water

## CC[C@@H]1C(=O)N(C)c2cnc(Nc3ccc(C(=O)NC4CCN(C)CC4)cc3OC)nc2N1C1CCCC1 [BI2536]
HCT 116 xenografts; 50 mg/kg once per week
  T/C: 15%
HCT 116 xenografts; 50 mg/kg twice per week
  T/C: 0.3%
[2]; day 1 schedule
  maximum tolerated dose: 350 mg
[2]; days 1+8 schedule
  maximum tolerated dose: 200 mg
[3]; 200 mg combined with standard-dose pemetrexed
  safety profile: acceptable safety profile
[3]; 325 mg with pemetrexed
  dose-limiting toxicities (DLT): grade 3 pruritus and rash; grade 4 neutropenia
[3]; in combination with 500 mg/m^2 pemetrexed, day 1 every 3 weeks, intravenous
  maximum tolerated dose (MTD): 300 mg
BxPC-3
  T/C: 5%
LNCaP; 5 nM BI2536, csFBS (FIG. 3B)
  proliferation over time: reduced
LNCaP; [20]
  viability: reduced
A549
  T/C: 14%
PSA expression
  PSA expression: did not suppress PSA expression
C4-2
  relative levels of proliferation: reduced over time
C4-2; 5 nM BI2536, csFBS (FIG. 3B)
  proliferation over time: reduced
C4-2; [20]
  viability: reduced
[4]
  MTD: 50 to 70 mg

## CC[C@@H]1C(=O)N(C)c2cnc(Nc3ccc(C(=O)N[C@H]4CC[C@H](N5CCN(CC6CC6)CC5)CC4)cc3OC)nc2N1C(C)C [BI6727]
[5]; i.v. once every 3 weeks, 12-450 mg
  DLTs: neutropenia, thrombocytopenia, and febrile neutropenia
[5]; i.v. once every 3 weeks
  MTD: 400 mg
[5]; in vivo
  recommended dose for further development based on overall tolerability: 300 mg
[6]
  growth of xenografts: significantly inhibits the growth
[7]
  inhibitory activity against a panel of >50 other kinases: no inhibitory activity
[8]
  MTD: 300 mg

## CC(=O)O[C@@]12CO[C@@H]1C[C@H](O)[C@@]1(C)C(=O)[C@H](O)C3=C(C)[C@@H](OC(=O)[C@H](O)[C@@H](NC(=O)OC(C)(C)C)c4ccccc4)C[C@@](O)([C@@H](OC(=O)c4ccccc4)[C@H]21)C3(C)C [Docetaxel, docetaxel]
LNCaP; 5 nM docetaxel, increasing abiraterone, 4 days, FBS (FIG. 7A)
  synergy with Abiraterone (% viability): did not synergize with Abiraterone
22 RV1; 5 nM docetaxel, increasing abiraterone, 4 days, csFBS (FIG. 7B)
  synergy with Abiraterone (% viability): did not synergize with Abiraterone
C4-2; 5 nM docetaxel, increasing abiraterone, 4 days, csFBS (FIG. 7C)
  synergy with Abiraterone (% viability): did not synergize with Abiraterone

## C[C@@H](Oc1cc(-n2cnc3ccc(CN4CCN(C)CC4)cc32)sc1C(N)=O)c1ccccc1C(F)(F)F [GSK461364]
Cell culture
  nature of cell culture growth inhibition: cytostatic or cytotoxic
[9]; in vivo
  DLTs: grade 4 neutropenia, sepsis, and pulmonary embolism
  incidence of venous thrombotic emboli: 20%
[9]; intravenously, schedule A (days 1, 8, and 15 of 28-day cycle)
  final recommended phase II dose: 225 mg
Xenograft tumor models
  effect in xenograft tumor models: tumor regression

## COc1ccc(S(=O)(=O)Nc2ccccc2/C=C/c2cc[n+]([O-])cc2)cc1 [HMN-176]
Plk1
  direct inhibition of the enzymatic activity of Plk1: does not directly inhibit the enzymatic activity of Plk1
Mouse xenograft models
  antitumor activity: potent antitumor activity
[10]
  cytotoxicity: potent cytotoxicity

## COc1ccc(S(=O)(=O)N(C(C)=O)c2ccccc2/C=C/c2cc[n+]([O-])cc2)cc1 [HMN-214]
[11]; 9.9 mg/m^2/d
  dose-limiting toxicities: severe myalgia/bone pain syndrome and hyperglycemia
[11]; continuous 21-day dosing schedule every 28 days
  maximum tolerated dose and recommended dose: 8.0 mg/m^2/d
[12]
  DLTs: prolonged neutropenia, febrile neutropenia, neutropenic sepsis, electrolyte disturbance, neuropathy, and myalgia

## Cc1ncc(CCCN(C)C)cc1Nc1ncc2c(n1)-c1ccc(C(F)(F)F)cc1NC(=S)C2 [MLN0905]
[13]
  EC50: 29 nM
Cell mitosis
  EC50: 9 nM

## CN1CCN(c2ccc(OC(F)(F)F)c(Nc3ncc4c(n3)-c3c(c(C(N)=O)nn3CCO)CC4)c2)CC1 [NMS 1286937]
[14]
  potency in proliferation assays: low nanomolar activity

## COc1cc(OC)c(/C=C/S(=O)(=O)Cc2ccc(OC)c(NCC(=O)[O-])c2)c(OC)c1.[Na+] [ON 01910]
[15]; at the MTD
  DLT: Grade 3 abdominal pain
[15]; i.v. days 1, 4, 8, 11, 15, and 18 in 28-day cycles
  MTD: 3,120 mg
BT20 cells
  tumor growth: inhibition of tumor growth
[16]
  tumor growth: inhibited tumor growth
[17]
  IC50: 18 to 260 nM

## C[C@]1(O)CC[C@H]2[C@@H]3CCC4=CC(=O)CCC4=C3C=C[C@@]21C [R1881]
LNCaP; 5 nM BI2536, csFBS (FIG. 3B)
  proliferation over time in the presence of BI2536 and synthetic androgen: somewhat rescued
LNCaP; csFBS (FIG. 3A)
  viability in the presence of BI2536 and synthetic androgen: somewhat rescued
C4-2; 5 nM BI2536, csFBS (FIG. 3B)
  proliferation over time in the presence of BI2536 and synthetic androgen: somewhat rescued
C4-2; csFBS (FIG. 3A)
  viability in the presence of BI2536 and synthetic androgen: somewhat rescued

## COc1cc(C(=O)NC2CCN(C)CC2)ccc1Nc1ncc2c(n1)N(C1CCCC1)CC(F)(F)C(=O)N2C [RO3280]
[18]; dosed more frequently
  antitumor activity: complete tumor regression
[18]; once weekly at 40 mg/kg
  tumor growth inhibition: 72%

## C[S+]([O-])c1ccc(-c2nc(-c3ccncc3)c(-c3ccc(F)cc3)[nH]2)cc1 (centres unmarked) [SB203580]
LNCaP; 10, 20 and 40 μM (FIG. 13A)
  cell death, p38MAPK inhibition alone: small amounts of cell death
LNCaP
  effect on cell killing by 10 μM Abiraterone: additive
LNCaP; listed as p38MAPK inhibitor
  effect on cell killing by 10 μM Abiraterone: modestly enhanced
22 RV1; 10, 20 and 40 μM (FIG. 13A)
  cell death, p38MAPK inhibition alone: small amounts of cell death
22 RV1
  effect on cell killing by 10 μM Abiraterone: additive
22 RV1; listed as p38MAPK inhibitor
  effect on cell killing by 10 μM Abiraterone: modestly enhanced
C4-2; 10, 20 and 40 μM (FIG. 13A)
  cell death, p38MAPK inhibition alone: small amounts of cell death
C4-2
  effect on cell killing by 10 μM Abiraterone: additive
C4-2; listed as p38MAPK inhibitor
  effect on cell killing by 10 μM Abiraterone: modestly enhanced

## COc1cc(C(=O)NC2CCN(C)CC2)c(F)cc1Nc1ncc2c(n1)N(C1CCCC1)CC(F)(F)C(=O)N2C [TAK-960]
[19]
  activity in tumor cell lines: has shown activity

## C[C@]12CC[C@H](O)CC1=CC[C@@H]1[C@@H]2CC[C@]2(C)C(c3cccnc3)=CC[C@@H]12 [abiraterone]
22 RV1; five days, csFBS
  sensitivity to Abiraterone in the absence of BI2536: relatively resistant
PSA expression
  PSA expression: substantially decreased
C4-2
  relative levels of proliferation: reduced over time
C4-2; five days, csFBS
  sensitivity to Abiraterone in the absence of BI2536: relatively resistant
